Experimental data reported in ChEMBL document CHEMBL1141209, “Carbonic anhydrase inhibitors: inhibition of the human isozymes I, II, VA, and IX with a library of substituted difluoromethanesulfonamides” (Bioorg Med Chem Lett, 2005).

Legend:
Carbonic anhydrase 2 = Carbonic anhydrase 2 (Homo sapiens, UniProt P00918)
Description: Inhibition of recombinant human cytosolic isozyme CA II

Carbonic anhydrase 9 = Carbonic anhydrase 9 (Homo sapiens, UniProt Q16790)
Description: Inhibition of cloned human transmembrane, tumor-associated isozyme CA IX

Carbonic anhydrase 1 = Carbonic anhydrase 1 (Homo sapiens, UniProt P00915)
Description: Inhibition of recombinant human cytosolic isozyme CA I

[1] = target: Carbonic anhydrase 5A, mitochondrial (Homo sapiens, UniProt P35218)
Sequence of Carbonic anhydrase 5A, mitochondrial (P35218 whole entry): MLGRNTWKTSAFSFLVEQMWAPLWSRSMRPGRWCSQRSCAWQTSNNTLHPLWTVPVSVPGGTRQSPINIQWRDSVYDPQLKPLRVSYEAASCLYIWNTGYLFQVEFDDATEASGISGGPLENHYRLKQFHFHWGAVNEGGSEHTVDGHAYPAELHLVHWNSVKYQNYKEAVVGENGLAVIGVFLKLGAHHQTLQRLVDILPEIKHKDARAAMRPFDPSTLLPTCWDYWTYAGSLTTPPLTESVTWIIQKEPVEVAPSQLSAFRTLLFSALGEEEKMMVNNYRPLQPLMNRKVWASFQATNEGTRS
Description: Inhibition of recombinant human mitochondrial isozyme CA VA

Sequence of Carbonic anhydrase 1 (P00915 whole entry): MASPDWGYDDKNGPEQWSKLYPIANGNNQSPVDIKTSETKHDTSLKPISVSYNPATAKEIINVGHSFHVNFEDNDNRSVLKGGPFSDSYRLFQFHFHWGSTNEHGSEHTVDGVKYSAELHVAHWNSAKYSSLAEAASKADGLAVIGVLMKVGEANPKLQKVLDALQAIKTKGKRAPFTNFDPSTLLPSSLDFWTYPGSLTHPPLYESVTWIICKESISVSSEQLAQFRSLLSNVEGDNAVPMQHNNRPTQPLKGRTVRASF

Structure (SMILES)	Ki (Carbonic anhydrase 2)	Ki (Carbonic anhydrase 9)	Ki (Carbonic anhydrase 1)	Ki [1]
Cc1cc(=O)oc2cc(OS(N)(=O)=O)ccc12	0.025 µM			
C[C@]12CC[C@@H]3c4ccc(C(F)(F)S(N)(=O)=O)cc4CC[C@H]3[C@@H]1CCC2=O	0.67 µM	1.73 µM	0.096 µM	0.129 µM
C[C@]12CC[C@@H]3c4ccc(CS(N)(=O)=O)cc4CC[C@H]3[C@@H]1CCC2=O	0.08 µM	0.208 µM	0.116 µM	1.46 µM
Cc1cc(=O)oc2cc(C(F)(F)S(N)(=O)=O)ccc12		0.195 µM		
Cc1cc(=O)oc2cc(CS(N)(=O)=O)ccc12		0.24 µM		
Cc1ccc(C(F)(F)S(N)(=O)=O)cc1		0.25 µM		
NS(=O)(=O)C(F)(F)c1ccccc1Br		9.28 µM		
NS(=O)(=O)C(F)(F)c1cccc(Br)c1		1.49 µM		
NS(=O)(=O)C(F)(F)c1ccc([N+](=O)[O-])cc1		2.42 µM		
NS(=O)(=O)C(F)(F)c1ccc(Br)cc1		7.73 µM		
NS(=O)(=O)C(F)(F)c1ccccc1 [PHENYLDIFLUOROMETHANESULFONAMIDE]		8.5 µM		
NS(=O)(=O)Cc1ccccc1 [PHENYLMETHANESULFONAMIDE]		9.3 µM		
